Measured values as given in PubChem BioAssay (NCI).
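Cultured in 96-well plates, cells were exposed to test compound for 48 hours across five concentrations. The concentration for full growth arrest is given as TGI.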

Key:
Experiment in all cases: growth of human tumour cells (NCI), 48 h
786-0 renal = system: 786-0 renal
A498 renal = system: A498 renal
A549 NSCLC = system: A549 NSCLC
ACHN renal = system: ACHN renal
BT-549 breast = system: BT-549 breast
CAKI-1 renal = system: CAKI-1 renal
CCRF-CEM leukemia = system: CCRF-CEM leukemia
COLO 205 colon = system: COLO 205 colon
DU-145 prostate = system: DU-145 prostate
EKVX NSCLC = system: EKVX NSCLC
HCC-2998 colon = system: HCC-2998 colon
HCT-116 colon = system: HCT-116 colon
HCT-15 colon = system: HCT-15 colon
HL-60(TB) leukemia = system: HL-60(TB) leukemia
HOP-62 NSCLC = system: HOP-62 NSCLC
HOP-92 NSCLC = system: HOP-92 NSCLC
HS 578T breast = system: HS 578T breast
HT29 colon = system: HT29 colon
IGROV1 ovarian = system: IGROV1 ovarian
K-562 leukemia = system: K-562 leukemia
KM12 colon = system: KM12 colon
LOX IMVI melanoma = system: LOX IMVI melanoma
M14 melanoma = system: M14 melanoma
MALME-3M melanoma = system: MALME-3M melanoma
MCF7 breast = system: MCF7 breast
MDA-MB-231 breast = system: MDA-MB-231 breast
MDA-MB-435 = system: MDA-MB-435
MDA-N = system: MDA-N
MOLT-4 leukemia = system: MOLT-4 leukemia
NCI-H226 lung = system: NCI-H226 lung
NCI-H23 lung = system: NCI-H23 lung
NCI-H460 lung = system: NCI-H460 lung
NCI-H522 lung = system: NCI-H522 lung
NCI/ADR-RES ovarian = system: NCI/ADR-RES ovarian
OVCAR-3 ovarian = system: OVCAR-3 ovarian
OVCAR-4 ovarian = system: OVCAR-4 ovarian
OVCAR-5 ovarian = system: OVCAR-5 ovarian
OVCAR-8 ovarian = system: OVCAR-8 ovarian
PC-3 prostate = system: PC-3 prostate
RPMI-8226 leukemia = system: RPMI-8226 leukemia
RXF 393 renal = system: RXF 393 renal
SF-268 CNS = system: SF-268 CNS
SF-295 CNS = system: SF-295 CNS
SF-539 CNS = system: SF-539 CNS
SK-MEL-2 melanoma = system: SK-MEL-2 melanoma
SK-MEL-28 melanoma = system: SK-MEL-28 melanoma
SK-MEL-5 melanoma = system: SK-MEL-5 melanoma
SK-OV-3 ovarian = system: SK-OV-3 ovarian
SN12C renal = system: SN12C renal
SNB-19 CNS = system: SNB-19 CNS
SNB-75 CNS = system: SNB-75 CNS
SR leukemia = system: SR leukemia
SW-620 colon = system: SW-620 colon
T-47D breast = system: T-47D breast
TK-10 renal = system: TK-10 renal
U251 CNS = system: U251 CNS
UACC-257 melanoma = system: UACC-257 melanoma
UACC-62 melanoma = system: UACC-62 melanoma
UO-31 renal = system: UO-31 renal

C[C@]12OC(=O)[C@]3(O)CC[C@H]4[C@@H](C[C@@H](O)[C@@]5(Cl)CC=CC(=O)[C@]45C)[C@]45OCC6C(=O)O[C@@H]1C[C@@]6(C)[C@H](C4=O)[C@@]32O5 (stereo partly specified)
TGI (786-0 renal): 11.3 µM | TGI (A498 renal): 2.91 µM | TGI (A549 NSCLC): 75 µM | TGI (ACHN renal): 5.9 µM | TGI (BT-549 breast): 2.27 µM | TGI (CAKI-1 renal): 4.03 µM | TGI (CCRF-CEM leukemia): 6.69 µM | TGI (COLO 205 colon): 17.1 µM | TGI (DU-145 prostate): 24.3 µM | TGI (EKVX NSCLC): 4.91 µM | TGI (HCC-2998 colon): 2.55 µM | TGI (HCT-116 colon): 12 µM | TGI (HCT-15 colon): 7.61 µM | TGI (HL-60(TB) leukemia): 12.8 µM | TGI (HOP-62 NSCLC): 10.3 µM | TGI (HOP-92 NSCLC): 5.68 µM | TGI (HS 578T breast): 44.5 µM | TGI (HT29 colon): 5.35 µM | TGI (IGROV1 ovarian): 2.74 µM | TGI (K-562 leukemia): 23.8 µM | TGI (KM12 colon): 8.59 µM | TGI (LOX IMVI melanoma): 6.46 µM | TGI (M14 melanoma): 2.47 µM | TGI (MALME-3M melanoma): 5.04 µM | TGI (MCF7 breast): 4 µM | TGI (MDA-MB-231 breast): 28.6 µM | TGI (MDA-MB-435): 23.8 µM | TGI (MDA-N): 17 µM | TGI (MOLT-4 leukemia): 17.4 µM | TGI (NCI-H226 lung): 9.37 µM | TGI (NCI-H23 lung): 1.83 µM | TGI (NCI-H460 lung): 9.54 µM | TGI (NCI-H522 lung): 1.14 µM | TGI (NCI/ADR-RES ovarian): 60.6 µM | TGI (OVCAR-3 ovarian): 6.65 µM | TGI (OVCAR-4 ovarian): 8.63 µM | TGI (OVCAR-5 ovarian): 3.23 µM | TGI (OVCAR-8 ovarian): 8.39 µM | TGI (PC-3 prostate): 8.71 µM | TGI (RPMI-8226 leukemia): 8.6 µM | TGI (RXF 393 renal): 1.04 µM | TGI (SF-268 CNS): 7.39 µM | TGI (SF-295 CNS): 12.4 µM | TGI (SF-539 CNS): 1.97 µM | TGI (SK-MEL-2 melanoma): 2.71 µM | TGI (SK-MEL-28 melanoma): 75 µM | TGI (SK-MEL-5 melanoma): 13.2 µM | TGI (SK-OV-3 ovarian): 10.9 µM | TGI (SN12C renal): 19.3 µM | TGI (SNB-19 CNS): 18.2 µM | TGI (SNB-75 CNS): 19.6 µM | TGI (SR leukemia): 14.2 µM | TGI (SW-620 colon): 12.6 µM | TGI (T-47D breast): 23.3 µM | TGI (TK-10 renal): 7.18 µM | TGI (U251 CNS): 15 µM | TGI (UACC-257 melanoma): 8.2 µM | TGI (UACC-62 melanoma): 4.2 µM | TGI (UO-31 renal): 2.57 µM

Cc1cc2nc3[nH]c4c(Cl)cc(Cl)cc4c3nc2cc1C
TGI (786-0 renal): > 100 µM | TGI (A498 renal): > 100 µM | TGI (A549 NSCLC): > 100 µM | TGI (ACHN renal): > 100 µM | TGI (BT-549 breast): > 100 µM | TGI (CAKI-1 renal): > 100 µM | TGI (CCRF-CEM leukemia): > 100 µM | TGI (COLO 205 colon): > 100 µM | TGI (DU-145 prostate): > 100 µM | TGI (EKVX NSCLC): > 100 µM | TGI (HCT-116 colon): > 100 µM | TGI (HCT-15 colon): > 100 µM | TGI (HL-60(TB) leukemia): > 100 µM | TGI (HOP-62 NSCLC): > 100 µM | TGI (HOP-92 NSCLC): > 100 µM | TGI (HS 578T breast): > 100 µM | TGI (HT29 colon): > 100 µM | TGI (IGROV1 ovarian): > 100 µM | TGI (K-562 leukemia): > 100 µM | TGI (KM12 colon): > 100 µM | TGI (LOX IMVI melanoma): > 100 µM | TGI (M14 melanoma): > 100 µM | TGI (MALME-3M melanoma): > 100 µM | TGI (MCF7 breast): > 100 µM | TGI (MDA-MB-231 breast): > 100 µM | TGI (MDA-MB-435): > 100 µM | TGI (MDA-N): > 100 µM | TGI (MOLT-4 leukemia): > 100 µM | TGI (NCI-H226 lung): > 100 µM | TGI (NCI-H23 lung): > 100 µM | TGI (NCI-H460 lung): > 100 µM | TGI (NCI-H522 lung): > 100 µM | TGI (NCI/ADR-RES ovarian): > 100 µM | TGI (OVCAR-3 ovarian): > 100 µM | TGI (OVCAR-4 ovarian): > 100 µM | TGI (OVCAR-5 ovarian): > 100 µM | TGI (OVCAR-8 ovarian): > 100 µM | TGI (PC-3 prostate): > 100 µM | TGI (RPMI-8226 leukemia): > 100 µM | TGI (RXF 393 renal): > 100 µM | TGI (SF-268 CNS): > 100 µM | TGI (SF-295 CNS): > 100 µM | TGI (SF-539 CNS): > 100 µM | TGI (SK-MEL-2 melanoma): > 100 µM | TGI (SK-MEL-28 melanoma): > 100 µM | TGI (SK-MEL-5 melanoma): > 100 µM | TGI (SK-OV-3 ovarian): > 100 µM | TGI (SN12C renal): > 100 µM | TGI (SNB-19 CNS): > 100 µM | TGI (SNB-75 CNS): 42 µM | TGI (SR leukemia): > 100 µM | TGI (SW-620 colon): > 100 µM | TGI (T-47D breast): > 100 µM | TGI (TK-10 renal): 56.4 µM | TGI (U251 CNS): > 100 µM | TGI (UACC-62 melanoma): > 100 µM | TGI (UO-31 renal): > 100 µM
